For data set [1], the system named is chemokine receptors (CXCR2/b). Description: Cl- transport/efflux in Calu-3 cells, IL-8 via chemokine receptors. Type of data set: cell-based, human.
The subject of data set [2] is rat colon epithelial cells. The conditions noted are these: cited from earlier work.
For data set [3], the target named is mutant forms (ΔF508) of CFTR (Homo sapiens, UniProt P13569, DEL508-508). The conditions noted are these: cited from earlier work.
The conditions of data set [4]: recent report; cited from earlier work.
The conditions of data set [5]: cited from earlier work.
A further data set addresses T1, C5aR (CD88) (Homo sapiens, UniProt P21730).
T1 construct: endogenous in cells; host or cells: Calu-3 (ATCC HTB-55)
T1 sequence (P21730 1-350): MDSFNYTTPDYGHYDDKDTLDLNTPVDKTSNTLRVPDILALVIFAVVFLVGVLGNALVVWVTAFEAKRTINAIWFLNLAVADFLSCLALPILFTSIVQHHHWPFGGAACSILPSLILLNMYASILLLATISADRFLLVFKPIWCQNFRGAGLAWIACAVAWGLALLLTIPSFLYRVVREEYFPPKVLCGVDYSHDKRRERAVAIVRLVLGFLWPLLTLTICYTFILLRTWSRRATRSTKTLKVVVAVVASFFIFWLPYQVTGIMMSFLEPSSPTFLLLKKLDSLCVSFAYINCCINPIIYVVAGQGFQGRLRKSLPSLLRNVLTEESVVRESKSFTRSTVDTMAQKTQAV
The data set is described as follows: Cl- efflux in Calu-3 cells, C5a via C5aR. The data set is classed as cell-based.

The test system of data set [6] is adenylyl cyclase activity. The data set is described as follows: adenylyl cyclase activity in Calu-3 cells. The data set is classed as cell-based, human. The conditions noted are these: FIG. 6.

≈ marks a conversion by molar mass, not a printed value. Like-named read-outs stand apart in the source and are kept apart here.

Sequence of mutant forms (ΔF508) of CFTR (P13569 with tags, fused parts or gaps DEL508-508): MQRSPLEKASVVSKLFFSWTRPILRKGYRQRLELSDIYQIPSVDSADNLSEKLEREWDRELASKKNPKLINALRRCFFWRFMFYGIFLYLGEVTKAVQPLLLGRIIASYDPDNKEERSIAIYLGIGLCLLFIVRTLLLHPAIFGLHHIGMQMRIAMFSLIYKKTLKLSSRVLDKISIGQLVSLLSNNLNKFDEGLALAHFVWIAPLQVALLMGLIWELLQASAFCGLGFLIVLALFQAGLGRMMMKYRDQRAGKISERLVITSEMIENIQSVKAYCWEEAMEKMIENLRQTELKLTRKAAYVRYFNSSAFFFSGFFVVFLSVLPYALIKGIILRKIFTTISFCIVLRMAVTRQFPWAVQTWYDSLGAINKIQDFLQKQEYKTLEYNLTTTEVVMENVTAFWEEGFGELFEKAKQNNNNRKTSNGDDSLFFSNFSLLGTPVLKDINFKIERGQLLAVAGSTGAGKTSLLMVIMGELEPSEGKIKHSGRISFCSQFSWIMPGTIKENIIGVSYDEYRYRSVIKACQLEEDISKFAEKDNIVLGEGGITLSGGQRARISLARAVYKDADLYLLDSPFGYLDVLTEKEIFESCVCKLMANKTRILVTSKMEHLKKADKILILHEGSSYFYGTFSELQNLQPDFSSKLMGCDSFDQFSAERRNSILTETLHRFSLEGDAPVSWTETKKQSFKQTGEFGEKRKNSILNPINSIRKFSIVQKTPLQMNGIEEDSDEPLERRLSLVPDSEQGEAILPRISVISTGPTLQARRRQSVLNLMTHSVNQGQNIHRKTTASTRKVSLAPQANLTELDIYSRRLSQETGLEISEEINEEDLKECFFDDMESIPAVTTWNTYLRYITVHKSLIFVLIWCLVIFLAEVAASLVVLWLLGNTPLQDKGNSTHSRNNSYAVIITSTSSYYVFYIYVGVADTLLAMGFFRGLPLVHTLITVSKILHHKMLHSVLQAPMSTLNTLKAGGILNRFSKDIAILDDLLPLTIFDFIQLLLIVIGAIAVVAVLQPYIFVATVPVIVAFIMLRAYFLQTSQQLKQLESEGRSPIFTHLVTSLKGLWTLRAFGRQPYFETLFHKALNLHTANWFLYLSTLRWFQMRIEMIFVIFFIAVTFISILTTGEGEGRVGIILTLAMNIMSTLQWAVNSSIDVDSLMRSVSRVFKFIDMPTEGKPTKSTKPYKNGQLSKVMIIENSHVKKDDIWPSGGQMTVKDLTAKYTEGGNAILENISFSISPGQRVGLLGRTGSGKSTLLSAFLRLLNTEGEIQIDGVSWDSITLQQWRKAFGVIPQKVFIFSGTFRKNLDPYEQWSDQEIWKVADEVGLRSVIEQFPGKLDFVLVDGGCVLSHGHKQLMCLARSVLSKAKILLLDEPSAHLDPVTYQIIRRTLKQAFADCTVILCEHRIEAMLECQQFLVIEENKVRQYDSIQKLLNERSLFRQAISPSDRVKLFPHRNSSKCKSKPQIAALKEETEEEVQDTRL

Consider “IL-8: chemokine released on activation of innate immunity, activates CXCR2”, for which, in data set [1] (Calu-3 cells, via CXCR2/b, FIG. 9), the “basal levels of Cl- transport” value is “inhibits”. For the same molecule, in data set [1] (FIG. 10), the “cAMP dependent Cl- efflux” value is recorded as “inhibits”. For the molecule `O=c1c(O)c(-c2ccc(O)c(O)c2)oc2cc(O)cc(O)c12` [quercetin], in data set [2], the Cl- secretion result is “induce Cl^− secretion”.

As to `CC(C)Cn1c(=O)n(C)c(=O)c2[nH]cnc21` [IBMX], the “activity of mutant CFTR, chloride transport function” value in data set [3] is “able to stimulate some activity”.

`CCCn1c(=O)c2[nH]c(C3CCCC3)nc2n(CCC)c1=O` [CPX, 8-cyclo-pentyl-1,3-dipropylxanthine]: in data set [4], the “efficacy in treating mild cystic fibrosis” value was “somewhat effective”. As a reminder, the Solubility is how much of the substance goes into solution per volume. `CNc1ccc2oc(C[C@H]3O[C@@]4(CC[C@H]3C)O[C@H]([C@H](C)C(=O)c3ccc[nH]3)[C@H](C)C[C@H]4C)nc2c1C(=O)O` [A23187, calcimycin]: the figures for the Solubility in data set [5] (in DMSO) and in data set [5] (in EtOH) were 50 mg/mL (≈ 95.5 mM) and 5 mg/mL (≈ 9.55 mM), respectively.

B1: C5a: proinflammatory anaphylatoxin peptide generated during complement activation, acts through C5aR (protein, UniProt P01031 678-751, looked up)
C5a anaphylatoxin: TLQKKIEEIAAKYKHSVVKKCCYDGACVNNDETCEQRAARISLGPRCIKAFTECCVVASQLRANISHKDMQLGR
modifications: C5a anaphylatoxin
With B1, the “basal Cl- efflux” value with C5aR (CD88) (Calu-3 cells, via C5aR (CD88), FIG. 7) is reported as “inhibits”. For the same molecule, the “cAMP dependent Cl- efflux” value with C5aR (CD88) (FIG. 8) is “inhibits”. Also, in data set [6], the adenylyl cyclase activity entry is listed as “inhibits”.

These data come from US20080114080A1, “Compositions and Methods for the Treatment of Cystic Fibrosis and other Pulmonary Disorders” (priority 2006, published 2008).
